In ChEMBL document CHEMBL3351832, “Design and synthesis of lactam-thiophene carboxylic acids as potent hepatitis C virus polymerase inhibitors” (Bioorg Med Chem Lett, 2014):

What was measured:
[1] = Inhibition of purified Hepatitis C virus NS5B; parameters: species or system Hepacivirus hominis
Hepatitis C virus [2] = experiment: Antiviral activity against Hepatitis C virus genotype 1b by cell-based replicon assay; assay type: functional, Hepacivirus hominis
[3] = biological target: T1, Nuclear receptor subfamily 1 group I member 2 (Homo sapiens, UniProt O75469); experiment: Activation of PXR (unknown origin) at 10 uM by reporter gene assay relative to rifampicin; assay type: ADME
T1 sequence (O75469 whole entry): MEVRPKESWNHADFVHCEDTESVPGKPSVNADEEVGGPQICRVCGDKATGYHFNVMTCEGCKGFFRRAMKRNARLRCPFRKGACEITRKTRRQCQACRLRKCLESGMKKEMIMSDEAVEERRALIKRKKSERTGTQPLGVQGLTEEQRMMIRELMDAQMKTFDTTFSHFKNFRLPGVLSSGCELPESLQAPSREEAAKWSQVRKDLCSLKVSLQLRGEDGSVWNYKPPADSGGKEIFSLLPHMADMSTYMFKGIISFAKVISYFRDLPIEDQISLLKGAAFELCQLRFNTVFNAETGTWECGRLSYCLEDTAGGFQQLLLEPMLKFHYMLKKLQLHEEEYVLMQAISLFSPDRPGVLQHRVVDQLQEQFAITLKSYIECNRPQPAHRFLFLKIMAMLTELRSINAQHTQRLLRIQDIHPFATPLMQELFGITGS

[4] = Volume of distribution at steady state in beagle dog at 0.3 mg/kg, iv; assay type: ADME, organism-based, Canis lupus familiaris; parameters: dose 0.3 mg/kg, route intravenous; conditions: in vivo, read-out: Vdss
[5] = Half life in beagle dog at 0.3 mg/kg, iv; assay type: ADME, organism-based, Canis lupus familiaris; parameters: dose 0.3 mg/kg, route intravenous; conditions: in vivo
[6] = AUC in beagle dog at 3 mg/kg, po; assay type: ADME, organism-based, Canis lupus familiaris; parameters: dose 3 mg/kg, route oral; conditions: plasma
[7] = Oral bioavailability in beagle dog at 3 mg/kg; assay type: ADME, organism-based, Canis lupus familiaris; conditions: in vivo
Hepatitis C virus [8] = experiment: Antiviral activity against Hepatitis C virus genotype 1b by cell-based replicon assay in presence of 40 % human serum
Hepatitis C virus [9] = experiment: Antiviral activity against Hepatitis C virus genotype 1a by cell-based replicon assay; conditions: subtype 1a
Cytochrome P450 3A4 = Cytochrome P450 3A4 (Homo sapiens, UniProt P08684); experiment: Increase in CYP3A4-mediated testosterone metabolism in human hepatocytes at 10 uM relative to rifampicin; assay type: ADME, cell-based, Hepatocyte
Chain of Cytochrome P450 3A4 (P08684 whole entry): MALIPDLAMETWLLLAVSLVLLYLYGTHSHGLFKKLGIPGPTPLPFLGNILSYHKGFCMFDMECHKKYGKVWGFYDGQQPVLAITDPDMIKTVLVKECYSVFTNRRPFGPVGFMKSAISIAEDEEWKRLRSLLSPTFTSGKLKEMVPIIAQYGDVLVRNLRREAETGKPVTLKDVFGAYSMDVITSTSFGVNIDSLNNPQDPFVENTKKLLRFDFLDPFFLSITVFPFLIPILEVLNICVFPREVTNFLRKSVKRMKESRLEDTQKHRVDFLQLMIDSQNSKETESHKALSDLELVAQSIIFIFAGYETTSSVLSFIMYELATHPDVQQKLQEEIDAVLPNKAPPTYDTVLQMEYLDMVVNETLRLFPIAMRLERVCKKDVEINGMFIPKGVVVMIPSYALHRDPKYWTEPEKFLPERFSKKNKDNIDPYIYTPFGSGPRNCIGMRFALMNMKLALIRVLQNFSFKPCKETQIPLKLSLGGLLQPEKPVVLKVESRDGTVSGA

[10] = AUC in Sprague-Dawley rat at 1 mg/kg, iv; assay type: ADME, organism-based; parameters: dose 1 mg/kg, route intravenous; conditions: plasma
[11] = Clearance in Sprague-Dawley rat at 1 mg/kg, iv; assay type: ADME, organism-based; parameters: dose 1 mg/kg, route intravenous; conditions: in vivo
[12] = Volume of distribution at steady state in Sprague-Dawley rat at 1 mg/kg, iv; assay type: ADME, organism-based; parameters: dose 1 mg/kg, route intravenous; conditions: in vivo, read-out: Vdss
[13] = Half life in Sprague-Dawley rat at 1 mg/kg, iv; assay type: ADME, organism-based; parameters: dose 1 mg/kg, route intravenous; conditions: in vivo
[14] = AUC in Sprague-Dawley rat at 5 mg/kg, po; assay type: ADME, organism-based; parameters: dose 5 mg/kg, route oral; conditions: plasma
[15] = Oral bioavailability in Sprague-Dawley rat at 5 mg/kg; assay type: ADME, organism-based; conditions: in vivo
[16] = AUC in beagle dog at 0.3 mg/kg, iv; assay type: ADME, organism-based, Canis lupus familiaris; parameters: dose 0.3 mg/kg, route intravenous; conditions: plasma
[17] = Clearance in beagle dog at 0.3 mg/kg, iv; assay type: ADME, organism-based, Canis lupus familiaris; parameters: dose 0.3 mg/kg, route intravenous; conditions: in vivo
Hepatocyte = experiment: Increase in CYP3A4 mRNA expression in human hepatocytes at 10 uM relative to rifampicin; assay type: ADME, cell-based

| SMILES | IC50 [1] [nM] | EC50 (Hepatitis C virus [2]) [nM] | Activity [3] [%] | further results |
| --- | --- | --- | --- | --- |
| C[C@H](O)C[C@H]1OC[C@@H](C2CCCCC2)N(c2cc(C#CC(C)(C)C)sc2C(=O)O)C1=O | 2 | 30 | 4 |  |
| CC(C)(C)C#Cc1cc(N2C(=O)C(C)(C)OC[C@H]2C2CCCCC2)c(C(=O)O)s1 | 2 | 5 | 145 |  |
| O=C(O)c1sc(-c2ccccc2)cc1N1C(=O)CC[C@@H]1C1CCCCC1 | > 10000 | > 33000 |  |  |
| Cc1ccc([C@H]2CC[C@H](C)CC2)n1-c1cc(-c2ccccc2)sc1C(=O)O | 1500 | > 33000 |  |  |
| C[C@H]1CC[C@H](C2CCCC(=O)N2c2cc(-c3ccccc3)sc2C(=O)O)CC1 (some centres not stated) | 740 | 11600 |  |  |
| C[C@@H](O)C[C@H]1OC[C@@H](C2CCCCC2)N(c2cc(C#CC(C)(C)C)sc2C(=O)O)C1=O | 3 | 8 | 9 | Vd [4]: 0.7 L/kg; half-life [5]: 5 h; AUC [6]: 6.3 µM·h; bioavailability [7]: 43%; EC50 (Hepatitis C virus [8]): 44 nM; EC50 (Hepatitis C virus [9]): 11 nM; Activity (Cytochrome P450 3A4): 2%; AUC [10]: 2.76 µM·h; clearance [11]: 14 mL/min/kg; Vd [12]: 3 L/kg; half-life [13]: 5.2 h; AUC [14]: 10.6 µM·h; bioavailability [15]: 77%; AUC [16]: 1.45 µM·h; clearance [17]: 7.7 mL/min/kg |
| CC(C)(C)C#Cc1cc(N2C(=O)[C@@](C)(CCCO)OC[C@H]2C2CCCCC2)c(C(=O)O)s1 (relative stereo) | 2 | 11 | 34 |  |
| O=C(O)c1sc(-c2ccccc2)cc1N1C(=O)CC[C@H]1C1CCCCC1 | 120 | 390 |  |  |
| CC(C)(C)C#Cc1cc(N2C(=O)[C@](C)(CCCO)OC[C@H]2C2CCCCC2)c(C(=O)O)s1 (relative stereo) | 4 | 25 | 8 |  |
| CC(C)(C)C#Cc1cc(N2C(=O)[C@H](CCCO)OC[C@H]2C2CCCCC2)c(C(=O)O)s1 | 35 | 83 |  |  |
| CC(C)(C)C#Cc1cc(N2C(=O)CCC[C@H]2C2CCCCC2)c(C(=O)O)s1 | 10 | 12 | 141 |  |
| CC(C)(C)C#Cc1cc(N2C(=O)[C@@H](CCCO)OC[C@H]2C2CCCCC2)c(C(=O)O)s1 (relative stereo) | 2 | 14 | 5 | Vd [4]: 0.1 L/kg; half-life [5]: 2.4 h; AUC [6]: 2.92 µM·h; bioavailability [7]: 12%; Activity (Cytochrome P450 3A4): 2%; AUC [10]: 0.984 µM·h; clearance [11]: 38 mL/min/kg; Vd [12]: 1.2 L/kg; half-life [13]: 1.1 h; AUC [14]: 2.11 µM·h; bioavailability [15]: 43%; AUC [16]: 2.34 µM·h; clearance [17]: 5.4 mL/min/kg |
| O=C(O)c1sc(-c2ccccc2)cc1N1C(=O)CCCC1C1CCCCC1 (configuration not stated) | 73 | 330 |  |  |
| O=C(O)c1sc(-c2ccccc2)cc1N1C(=O)CCCC1C1CCCC1 (configuration not stated) | 720 | 3700 |  |  |
| CC(C)(C)C#Cc1cc(N2C(=O)[C@](C)(CCO)OC[C@H]2C2CCCCC2)c(C(=O)O)s1 (relative stereo) | 6 | 20 | 29 |  |
| CC(C)(C)C#Cc1cc(N2C(=O)[C@H](CCO)OC[C@H]2C2CCCCC2)c(C(=O)O)s1 (relative stereo) | 12 | 66 |  |  |
| CC(C)(C)C#Cc1cc(N2C(=O)[C@@](C)(CCO)OC[C@H]2C2CCCCC2)c(C(=O)O)s1 (relative stereo) | 2 | 3 | 77 |  |
| O=C(O)c1sc(-c2ccccc2)cc1N1C(=O)CCC1C1CCCCC1 (configuration not stated) | 180 | 640 |  |  |
| Cc1ccc(C2CCCCC2)n1-c1cc(-c2ccccc2)sc1C(=O)O | 10500 | > 33000 |  |  |
| CC(C)N(c1cc(-c2ccccc2)sc1C(=O)O)C(=O)[C@H]1CC[C@H](C)CC1 | 60 | 270 |  |  |
| O=C(O)c1sc(-c2ccccc2)cc1N1C(=O)CCCC1c1ccccc1 (configuration not stated) | 870 | 5800 |  |  |
| CC(C)(C)C#Cc1cc(N2C(=O)COC[C@H]2C2CCCCC2)c(C(=O)O)s1 | 3 | 17 | 87 | Activity (Cytochrome P450 3A4): 61%; Activity (Hepatocyte): 66% |
| CC(C)(C)C#Cc1cc(N2C(=O)[C@@H](CCO)OC[C@H]2C2CCCCC2)c(C(=O)O)s1 (relative stereo) | 2 | 7 | 3 | Vd [4]: 0.3 L/kg; half-life [5]: 3.8 h; AUC [6]: 5.68 µM·h; bioavailability [7]: 27%; Activity (Cytochrome P450 3A4): 5%; AUC [10]: 1.42 µM·h; clearance [11]: 27 mL/min/kg; Vd [12]: 2.1 L/kg; half-life [13]: 2 h; AUC [14]: 3.37 µM·h; bioavailability [15]: 48%; AUC [16]: 2.08 µM·h; clearance [17]: 5.6 mL/min/kg |
| O=C(O)c1sc(-c2ccccc2)cc1N1C(=O)CCCC1C1CCOCC1 (configuration not stated) | > 10000 | > 33000 |  |  |
